Target: prenyl cysteine methyltransferase (Bos taurus, UniProt A0AAA9SD88)
Assay: Prenyl cysteine methyltransferase assay (3H-methyl transfer from S-adenosylmethionine to AFC, vapor-phase equilibrium)
Type: biochemical
Details: 5.0 μM (3H-methyl)-S-adenosylmethionine, 83,000×g pellet of bovine brain, 37° C., pH 7.9
Method: To a putative source of prenyl cysteine methyl transferase enzyme is added 50 μM of N-acetyl-S-farnesyl cysteine ("AFC") and 5.0 μM (^3 H-methyl)-S-adenosylmethionine (specific activity 16,000 cpm/pmol) in 100 mM tris-HCl, 1 mM EDTA, 1 mM DTT, pH 7.9 in a final volume of 150 μL. After heating the mixture at 37° C. for 5 to 25 minutes, 25 μL of the mixture is removed and added to 250 μL of heptane. The mixture is immediately vortexed to extract N-acetyl-S-farnesyl cysteine methyl ester into the organic phase. The mixture then is centrifuged for 30 seconds, and placed in a dry ice/acetone bath to quench the reaction. The heptane layer (200 μL) is removed and added to a 1.5 mL capless Eppendorf microcentrifuge tube. The heptane is evaporated in a Speedvac, and 25 μL of 1M sodium hydroxide is added to the remaining residue. The ^3 H-methanol produced from the hydrolysis of the ^3 H-methylesters is assayed by the vapor-phase equilibrium procedure as described in Stock, J. B., et al. (1984) Methods Enzymology, 106, 310-321 which is incorporated herein by reference.
A sample of 0.003 grams of 83,000×g. pellet from homogenized bovine brain after previous removal of the 14,000×g. pellet was subjected to the foregoing assay.

prenyl cysteine methyltransferase, sequence (A0AAA9SD88 1-284): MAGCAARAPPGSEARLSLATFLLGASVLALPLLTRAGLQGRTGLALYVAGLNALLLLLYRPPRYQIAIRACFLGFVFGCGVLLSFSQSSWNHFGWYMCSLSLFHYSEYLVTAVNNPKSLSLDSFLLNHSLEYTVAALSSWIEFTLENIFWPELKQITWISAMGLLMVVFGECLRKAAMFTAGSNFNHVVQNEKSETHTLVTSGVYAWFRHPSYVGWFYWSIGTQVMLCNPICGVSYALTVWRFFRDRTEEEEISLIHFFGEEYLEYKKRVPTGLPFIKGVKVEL

## CC(=O)N[C@@H](CSC/C=C(\C)CC/C=C(\C)CCC=C(C)C)C(=O)O [AFC, N-Acetyl, S-trans,trans-farnesyl-L-cysteine]
5 min
  cpm (w/50 μM AFC): 199.5 cpm
10 min
  cpm (w/50 μM AFC): 343.5 cpm
15 min
  cpm (w/50 μM AFC): 393.5 cpm
20 min
  cpm (w/50 μM AFC): 543.0 cpm
25 min
  cpm (w/50 μM AFC): 616.0 cpm

Reference: patent US5043268A, “Substrates and inhibitors for prenyl cysteine methyltransferase enzymes” (The Trustees of Princeton University, priority 1990, dated 1991)
